Legend:
[1] = Temporal change in blood ICG concentration after tail vein injection into a nude mouse (FIG. 2); type: in vivo; conditions: ICG 20 nanomoles
Protocol: FIG. 2 is a diagram illustrating a temporal change in the concentration of the contrast agent 1012 in the blood when ICG (20 nanomoles) which is the contrast agent 1012 was injected into a tail vein of a nude mouse. The vertical axis of FIG. 2 represents the blood ICG concentration and the horizontal axis represents the time elapsed after the contrast agent 1012 was injected to the nude mouse.

[2] = J Clin Invest., 1960 April, 39(4): p. 592-600; cited from earlier work

time after injection within which the concentration of ICG present in the blood decreases to a half or smaller [1]: ≤ 10 min
SMILES: CC1(C)C(/C=C/C=C/C=C/C=C2\N(CCCCS(=O)(=O)O)c3ccc4ccccc4c3C2(C)C)=[N+](CCCCS(=O)(=O)[O-])c2ccc3ccccc3c21 [ICG, Indocyanine green]
half-life of ICG in the blood [2]: approximately 3 minutes
